Measured values published in PMC11278233, “The Composition of Triterpene Glycosides in the Sea Cucumber Psolus peronii: Anticancer Activity of the Glycosides against Three Human Breast Cancer Cell Lines and Quantitative Structure–Activity Relationships (QSAR)” (Marine Drugs, 2024).
Read-outs that look alike come from different tables or passages of the source.

Tests used:
[1] = system: human erythrocytes; assay: Hemolytic activity; format: cell-based; conditions: Erythrocyte, 1 h at 37 °C, lysis of 50% of erythrocytes
Method: A total of 450 g of human blood (B(III) Rh+) was used to obtain erythrocytes by centrifuging it three times for 5 min with phosphate-buffered saline (PBS) (pH 7.4) at 4 °C on the centrifuge LABOFUGE 400R (Heraeus, Hanau, Germany). Ice-cold PBS (pH 7.4) was used for resuspension of the erythrocyte residue to a final optical density of 1.5 at 700 nm, which was kept on ice. Then, 20 µL of the tested compound solutions was added to 180 µL of the erythrocyte suspension in V-bottom 96-well plates and exposed for 1 h at 37 °C. The layers were separated by centrifugation at 900 g for 10 min on the laboratory centrifuge LMC-3000 (Biosan, Riga, Latvia). A total of 100 µL of the supernatant was carefully decanted and transferred into a new flat plate. The values of erythrocyte lysis were measured on a microplate photometer Multiskan FC (Thermo Fisher Scientific, Waltham, MA, USA) at λ = 570 nm as the hemoglobin concentration in the supernatant. […] All the experiments were carried out in triple repetitions; p ≤ 0.05.

[2] = in vitro; format: cell-based, human; conditions: human
[3] = system: non-transformed epithelial cells of the mammary gland MCF-10A; assay: in vitro; format: cell-based, human
[4] = system: human breast cancer cell line MCF-7; assay: cells; format: cell-based; conditions: for Selectivity Index MCF-7: ratio of IC50 for healthy (MCF-10A) and cancer cells
[5] = system: human breast cancer cell line T-47D; assay: cells; format: cell-based; conditions: for Selectivity Index T-47D: ratio of IC50 for healthy (MCF-10A) and cancer cells
[6] = system: triple-negative human breast cancer cell line MDA-MB-231; assay: cells; format: cell-based; conditions: for IC50: Homo sapiens; for Selectivity Index MDA-MB-231: ratio of IC50 for healthy (MCF-10A) and cancer cells
[7] = system: MCF-7 cells; assay: Colonogenic (colony formation) assay, MCF-7; format: cell-based; conditions: Homo sapiens, MCF7, 336 h, 14 days
Method: (§1) The cancer cells (MDA-MB-231, MCF-7 and T-47D lines) were cultured on 6-well plates at a density of 1 × 10^3 per well in control media (MEM media, 10% FBS, 10,000 U/mL of penicillin and […] of streptomycin) or in media supplemented with different concentrations of the glycosides. The cells were incubated for 14 days at 37 °C in a 5% CO2 humidified incubator. Then, the colonies were fixed with methanol (25 min), stained with a 0.5% solution of crystal violet (25 min), washed with H2O and dried in air. Counting of the grown colonies was carried out using a BIO-PRINT-Cx4 Edge-Fixed Pad-Container (Vilber, Collegien, France) device and using the software Bio-Vision SOFTWARE User and service manual-v18.01 (Vilber, Collegien, France). The results are presented as % of colony inhibition in relation to the control.

[8] = system: MDA-MB-231 cells; assay: Colonogenic (colony formation) assay, MDA-MB-231; format: cell-based; conditions: Homo sapiens, 336 h, 2 μM, 14 days, read-out: inhibition of the growth of colonies
Method: as §1

[9] = system: T-47D cells; assay: Colonogenic (colony formation) assay, T-47D; format: cell-based, human; conditions: 1 μM, 14 days
Method: as §1

[10] = system: MCF-7 cells; assay: Wound healing (scratch) assay, MCF-7; format: cell-based, human; conditions: 1 and 2 μM, within 48 h, control migrated by 84.60 ± 2.12%
Method: (§2) To analyze the influence of the tested compounds on tumor cell migration, MCF-7 and MDA-MB-231 (5 × 10^5) cells attached to the plate’s plastic bottom were separated using a silicone insert from special migration plates (Culture-insert 2Well 24, ibiTreat). When the insert was removed, a gap of […] (according to the manufacturer’s data) between the cells was left. After 24 h, the cells were washed twice with PBS to remove cell debris and floating cells, treated with 1 and 2 μM of psolusosides A (2) and L (6) and placed in the real-time live cell imaging system Juli Stage (NanoEntek, Seoul, South Korea). Cells treated with the culture medium only were used as the control. The cell migration was analyzed in real time (15 min for each cycle). For the MDA-MB-231 cells, observations were carried out for 12 h (until complete healing of the wound area in the control); for MCF-7 cells, this time was 48 h. The results were processed using the program Juli^TM Stat (NanoEntek, South Korea).

[11] = system: MDA-MB-231 cells; assay: Wound healing (scratch) assay, MDA-MB-231; format: cell-based, human; conditions: 2 μM, within 12 h, control 99.83 ± 0.08%
Method: as §2

Structure (SMILES): C=C(C)CCC[C@]1(C)OC(=O)[C@]23CC=C4[C@@H](CC[C@H]5C(C)(C)[C@@H](O[C@@H]6OC[C@@H](O[C@@H]7O[C@H](COS(=O)(=O)[O-])[C@@H](O)[C@H](O)[C@H]7O)[C@H](O)[C@H]6O[C@@H]6O[C@H](C)[C@@H](O[C@@H]7O[C@H](COS(=O)(=O)[O-])[C@@H](O)[C@H](O[C@@H]8O[C@H](COS(=O)(=O)[O-])[C@@H](O)[C@H](OC)[C@H]8O)[C@H]7O)[C@H](O)[C@H]6O)CC[C@]45C)[C@]2(C)CC(=O)[C@@H]31.[Na+].[Na+].[Na+] [psolusoside L (6), psolusoside L]
- IC50 [1]: 1.83 ± 0.14 µM
- IC50 at 24 h [2]: 33.08 ± 0.29 µM
- cytotoxicity to non-transformed MCF-10A cells (result in words) [3]: slightly cytotoxic
- IC50 ([4]; Homo sapiens, MCF7, 24 h, read-out: Cytotoxicity, IC50 µM MCF-7): 13.7 ± 0.31 µM
- Selectivity Index MCF-7 ([4]; 24 h of exposition): 2.41
- Selectivity Index MCF-7 ([4]; 48 h of exposition): 1.33
- Selectivity Index MCF-7 ([4]; 72 h of exposition): 0.66
- IC50 ([5]; Homo sapiens, T47D, 24 h, read-out: Cytotoxicity, IC50 µM T-47D): 5.45 ± 0.04 µM
- Selectivity Index T-47D ([5]; 24 h of exposition): 6.07
- Selectivity Index T-47D ([5]; 48 h of exposition): 1.25
- Selectivity Index T-47D ([5]; 72 h of exposition): 0.91
- IC50 ([6]; MDA-MB-231, 24 h, read-out: Cytotoxicity, IC50 µM MDA-MD-231): 6.39 ± 0.3 µM
- IC50 ([6]; MDA-MB-231, MTT assay, 48 h incubation, read-out: IC50 against MDA-MB-231 cells (antiproliferative effect)): 1.67 ± 0.16 µM
- IC50 ([6]; MDA-MB-231, MTT assay, 72 h incubation, read-out: IC50 against MDA-MB-231 cells (antiproliferative effect)): 1.24 ± 0.02 µM
- Selectivity Index MDA-MB-231 ([6]; 24 h of exposition): 5.18
- Selectivity Index MDA-MB-231 ([6]; 48 h of exposition): 5.83
- Selectivity Index MDA-MB-231 ([6]; 72 h of exposition): 4.56
- inhibition at 1 µM ([7]; 1 μM): 19.6 ± 0.24%
- inhibition at 2 µM ([7]; 2 μM): 89.67 ± 0.28%
- inhibition at 5 µM ([7]; 5 μM): 97.83 ± 0.25%
- inhibition at 2 µM [8]: 90.4 ± 0.92%
- growth of colonies (result in words) [9]: completely blocked
- reduction of the migration of cells to the scratch area [10]: 33–42%
- overgrowth of the wound area (migration) [11]: 6.03 ± 0.02%
